Several values for one entry are separate records, joined by “and”; a condition that tells them apart may be missing. Equal values may be shown once.
What was measured:
[1] = Diffusivity by dynamic light scattering (DLS); type: physicochemical
[2] = in vivo; cited from earlier work
[3] = Absorption and fluorescence spectroscopy (plate reader / nanodrop); type: physicochemical
[4] = Stability of the chelate in solution over time (Tb/Gd metal exchange); type: physicochemical; settings: 5, 30, and 60 minutes
Description: To determine the stability of the chelate in solution as a function of time, readings were made at different time points. If there is an exchange of Tb with Gd on the sensitized chelate, then a dramatic increase in signal should be observed. The intensity of cs124-DTPA-Tb is 10000 fold higher than the equivalent concentration of cs124-DTPA-Gd.

[5] = Xylenol orange determination of free Gd3+ after chelation; type: physicochemical
Description: When xylenol orange coordinates Gd^3+ ion, absorption at 573 decreases relative to that at 433.
For determination of free Gd^3+ in solution after chelation. 3 mg xylenol orange was dissolved in 50 mM acetic acid pH 5.8, and 90 μL added to each well of a clear 96 well plate. Triplicate samples of 10 μL 10^−3M cs124-DTPA were added to each well, and increasing amounts of […] titrated in. Absorption was read at 573 and 433, against a standard of known Gd^3+ concentration.

[6] = mouse plasma, 0.1 mmol/kg via saphenous vein, bi-exponential fit

Row | Compound | Diffusivity D [1] | Relaxivity r1 (Relaxivity r1) [M⁻¹ ms⁻¹] | Distribution half-life [2] [min] | Distribution time (manufacturer's data) [2] [min] | Elimination time (manufacturer's data) [2] [min] | Plasma clearance half-life [2] | Absorbance Amax [3] [nm] | Fluorescence Emmax [3] [nm] | Fluorescence Exmax [3] [nm] | Change of intensity over time (metal exchange between sensitized and unsensitized chelates) [4] | Free Gd3+ ion concentration ([5]; incubated with 50 mM xylenol orange) [%] | Concentration of chelated complex above which free Gd3+ is detectable ([5]; incubated with xylenol orange in 50 mM acetic acid pH 5.8) | Relaxivity compared with DTPA-Gd (Relaxivity r1) | Characteristic distribution time [6] | Elimination time [6]
1 | [Gd+3] [Gd3+, reference compound] | 8.0 × 10^−6 cm^2/s | 9.16 ± 0.96 |  |  |  |  |  |  |  |  |  |  |  |  | 
2 | O=C([O-])CN(CCN(CC(=O)[O-])CC(=O)O)CCN(CC(=O)[O-])CC(=O)O.[Gd+3] [Magnevist ®, gadolinium-diethylenetriaminepentaacetic acid] |  | 3.4 | 12 | 12.2 ± 7.8 | 96.0 ± 7.8 | approximately 81 min |  |  |  |  |  |  |  |  | 
3 | Cc1cc(=O)[nH]c2cc(N)ccc12 [cs124, carbostyril124, reference compound] |  |  |  |  |  |  | 328 | 370 | 310 |  |  |  |  |  | 
4 | carbostyril-124-diethylenetriaminepentaacetic acid-Gadolinium [cs124-DTPA-Gd] | 2.5 × 10^−6 cm^2/s | 3.32 ± 1.4 |  |  |  |  | 328 | 375 | 341 | No significant change | 0.06 | above 1.75 mM | the same as that of DTPA-Gd | 13.2 ± 0.543 min and 14 min | 92.2 ± 11.7 min and 90 min
